Data as given in patent US20220211654A1, “MATERIALS AND METHODS FOR TREATING AGE-RELATED MACULAR DEGENERATION” (THE REGENTS OF THE UNIVERSITY OF CALIFORNIA, priority 2019, published 2022).

Key:
[1] = tested on: AMD ARPE-19 transmitochondrial cybrid cells; assay: Mitochondrial membrane potential (JC-1) assay; format: cell-based, human; details: AMD cybrids; fenofibrate 50 μM; compared to untreated
Method: Mitochondrial membrane potential (JC-1) assay: The JC-1 assay uses a unique cationic dye i.e., 5,5′,6,6′-tetrachloro-1,1′,3,3′-tetraethylbenzimidazolylcarbocyanine iodide, to detect loss of mitochondrial membrane potential. JC-1 1× reagent was prepared by diluting 100× JC-1 reagent in assay buffer to 1:100 dilutions. […] 1× JC-1 reagent was added to cells and incubated for 15 min at 37° C. JC-1 reagent in the wells was then replaced with DPBS and fluorescence was measured as follows: Red fluorescence (Live cells): Excitation 550 nm and Emission 600 nm; Green fluorescence (Apoptotic cells): Excitation 485 nm and Emission 535 nm. Ratio of Red/Green was used for analysis. Lower ratio corresponded to higher apoptotic/dead cell number.

[2] = tested on: AMD ARPE-19 transmitochondrial cybrid cells; assay: MitoSOX assay (mitochondrial superoxide); format: cell-based, human; details: AMD cybrids, fenofibrate 50 μM
Method: MitoSOX assay: The fluorogenic MitoSOX Red dye (Cat. #M36008, Invitrogen, Grand Island, N.Y., USA) is a live-cell permeant reagent that detects mitochondrial superoxide in cells. MitoSOX Red reagent oxidized by superoxide has red fluorescence that can be quantified. AMD cybrids were plated in 24-well tissue culture plates. Stock solution of 5 mM MitoSOX reagent was diluted with HBSS (Hank's balanced salt solution) buffer to obtain a 5 μM working solution. Cells were treated with 5 μM MitoSOX reagent and incubated for 10 min at 37° C. Cells were then washed with HBSS buffer, and fluorescence was measured at excitation/emission maxima of 510/580 nm.

[3] = tested on: AMD ARPE-19 transmitochondrial cybrid cells; assay: CellLight Mitochondrial GFP staining and confocal microscopy; format: cell-based, human; details: fenofibrate 50 μM
Method: CellLight Mitochondrial GFP staining and Confocal microscopy: Staining with CellLight Mitochondrial GFP probe (Cat. #C10600, Thermo Fisher Scientific, MA, USA) and confocal microscopy were performed as described previously (74). Cells were plated in 4-well tissue culture chamber slides, stained with CellLight mtGFP for 24 hr and incubated overnight at 37° C. The cells were washed with 1×TBS (Tris buffered saline), fixed in paraformaldehyde and mounted in DAPI. Confocal z-stack images were captured using the LSM-700 Confocal microscope (Zeiss, Thornwood, N.Y., USA). Images were quantified using ZEN 2 lite software (Zeiss).
RPE cells were transduced with CellLight reagent which is a GFP-E1 alpha pyruvate dehydrogenase leader peptide construct with a mammalian promoter. This fluorescent baculoviral fusion construct provides precise targeting to mitochondria.

[4] = tested on: AMD ARPE-19 transmitochondrial cybrid cells; assay: Cell viability assay (MTT assay); details: for cell viability, Mean ± SEM: AMD UN = 1
Method: All cybrids used in this study belonged to the ‘H’ mitochondrial DNA haplogroup. […] Stock solutions of 20 mM kaempferol and 10 mM telmisartan were prepared in DMSO and were diluted in culture media to obtain the following working concentrations: kaempferol at 5 μM, 10 μM, and 20 μM; telmisartan at 2.5 μM, 5 μM, and 10 μM. Cell viability assay (MTT assay): The numbers of viable cells were measured using the MTT (3-(4,5-dimethylthiazol-2-yl)-2,5-diphenyltetrazolium bromide) assay. […] Cells were incubated at 37° C. for 1 h, followed by addition of DMSO. Absorbance was measured at 570 nm and background absorbance measured at 630 nm. Normalized absorbance values were obtained by subtracting background absorbance from signal absorbance. The colorimetric signal obtained was proportional to the cell number.

PGC-1α = assay: qRT-PCR gene expression of PGC-1α in AMD RPE cybrid cells; format: cell-based, human; details: 72 hr, AMD UN = 1
Method: (§1) Quantitative Real-Time PCR: RNA extraction, cDNA synthesis, and qRT-PCR analysis were performed as described previously (73). QuantiTect Primer Assays were used to study the expression of Caspase-3 gene (Cat. #QT00023947, Qiagen, Germantown, Md.), BAX gene (Cat. #QT00031192, Qiagen), HIF1α gene (Cat. #QT00083664, Qiagen), CFH gene (Cat. #QT00001624, Qiagen), and SOD2 gene (Cat. #QT01008693, Qiagen). KiCqStart® SYBR® green primers were used to examine the expression of PGC-1a, NRF-1, NRF-2, PPAR-α, PPAR-γ, VEGF, IL-18, and IFNB1 genes (Cat. #kspq12012, Sigma, St. Louis, Mo.). Specific housekeeper genes used were HPRT1 (Cat. #QT00059066, Qiagen), ALAS variant 1 (Cat. #QT01160467, Qiagen), and HMBS (Cat. #QT00014462). TaqMan gene expression master mix (Cat. #4369016, Life Technologies) and TaqMan gene expression assays were used to examine the expression of the MT-RNR2 gene (Assay ID: Hs02596860_s1, Life Technologies), for which GAPDH (Assay ID: Hs02786624_g1, Life Technologies) was used as a housekeeper gene. Data analysis was performed using ΔΔCt method which was calculated by subtracting ΔCt of the AMD group from ΔCt of the normal group. ΔCt was the difference between the Cts (threshold cycles) of the target gene and Cts of the housekeeper gene (reference gene). Fold change was calculated using the following formula: Fold change=2^ΔΔct.

SOD2 = assay: qRT-PCR gene expression of SOD2 in AMD RPE cybrid cells; format: cell-based, human; details: 72 hr, AMD UN = 1
Method: as §1

Caspase-3 = assay: qRT-PCR gene expression of Caspase-3 in AMD RPE cybrid cells; format: cell-based, human; details: 72 hr; for Caspase-3 gene expression, Mean ± SEM: AMD UN = 1
Method: as §1

IL-18 = assay: qRT-PCR gene expression of IL-18 in AMD RPE cybrid cells; format: cell-based, human; details: 72 hr, AMD UN = 1
Method: as §1

VEGF = assay: qRT-PCR gene expression of VEGF in AMD RPE cybrid cells; format: cell-based, human; details: 72 hr; for VEGF gene expression, Mean ± SEM: AMD UN = 1
Method: as §1

esterase = assay: fenofibrate to fenofibrate* conversion (first pass) and its block by esterase inhibitors; details: co-administered with fenofibrate
[5] = only kaempferol 20 μM, compared to untreated AMD cybrids

`CC(C)OC(=O)C(C)(C)Oc1ccc(C(=O)c2ccc(Cl)cc2)cc1` [fenofibrate] was tested, and the “increased mitochondrial membrane potential (JC-1 assay)” value [1] was 116%, the “mitochondrial superoxides, MitoSOX fluorescence (mean±SEM)” value ([2]; AMD UN = 1) was 0.77±0.04 and the “lower amount of mitochondrial superoxides (MitoSOX assay)” value ([2]; compared to untreated) was 23%. The “mtGFP fluorescence intensity (mean±SEM)” value ([3]; AMD UN = 1) was 2.73±0.39, the “increase in mtGFP fluorescence intensity” value ([3]; compared to untreated) was 173% and the “cell viability, Mean ± SEM” value ([4]; 48 hr, fenofibrate 50 μM only) was 1.33 ± 0.09. For the same molecule, the “cell viability, Mean ± SEM” value ([4]; 72 hr, fenofibrate 50 μM only) was 1.37 ± 0.07 and the higher cell viability ([4]; AMD cells, fenofibrate 50 μM, compared to untreated) was 51%.

For `O=c1c(O)c(-c2ccc(O)cc2)oc2cc(O)cc(O)c12` [kaempferol, 3,5,7-trihydroxy-2-(4-hydroxyphenyl)-4H-1-benzopyran-4-one], the “PGC-1a gene expression, Mean ± SEM” value (PGC-1α; kaempferol 20 μM only) was 1.82 ± 0.57, the “SOD2 gene expression, Mean ± SEM” value (SOD2; kaempferol 20 μM only) was 0.88 ± 0.22 and the “Caspase-3 gene expression, Mean ± SEM” value (Caspase-3; kaempferol 20 μM only) was 0.74 ± 0.045. The Caspase-3 downregulation (Caspase-3; [5]) was 26%, the “IL-18 gene expression, Mean ± SEM” value (IL-18; kaempferol 20 μM only) was 0.78 ± 0.13 and the “VEGF gene expression, Mean ± SEM” value (VEGF; kaempferol 20 μM only) was 0.42 ± 0.16. The VEGF downregulation (VEGF; [5]) was 58%, the “block of conversion of fenofibrate to fenofibrate*” value (esterase) was “largely block conversion to fenofibrate*” and the “cell viability, Mean ± SEM” value ([4]; 48 hr, kaempferol 20 μM only) was 1.037 ± 0.1413. For the same molecule, the “cell viability, Mean ± SEM” value ([4]; 72 hr, kaempferol 20 μM only) was “did not show any difference in cell viability” and the “cell viability, Mean ± SEM” value ([4]; 72 hr, kaempferol 20 μM only, listed as kempferol) was 1.259 ± 0.1060.

In the case of `CCCc1nc2c(C)cc(-c3nc4ccccc4n3C)cc2n1Cc1ccc(-c2ccccc2C(=O)O)cc1` [telmisartan], the “PGC-1a gene expression, Mean ± SEM” value (PGC-1α; telmisartan 10 μM only) is reported as 1.40 ± 0.48, the “SOD2 gene expression, Mean ± SEM” value (SOD2; telmisartan 10 μM only) is reported as 1.71 ± 0.46 and the “Caspase-3 gene expression, Mean ± SEM” value (Caspase-3; telmisartan 10 μM only) is reported as 0.86 ± 0.06. For the same molecule, the “IL-18 gene expression, Mean ± SEM” value (IL-18; telmisartan 10 μM only) was 0.71 ± 0.25, the “VEGF gene expression, Mean ± SEM” value (VEGF; telmisartan 10 μM only) was 0.52 ± 0.19 and the “block of conversion of fenofibrate to fenofibrate*” value (esterase) was “largely block conversion to fenofibrate*”. For the same molecule, the “cell viability, Mean ± SEM” value ([4]; 48 hr, telmisartan 10 μM only) was 0.95 ± 0.11 and the “cell viability, Mean ± SEM” value ([4]; 72 hr, telmisartan 10 μM only) was 0.99 ± 0.09.
